Among the test systems are A498; BT-549; CCRF-CEM; COLO 205; HCT-15; HOP-62; HOP-92; HT-29; IGROV-1; K562; KM12; M14; MOLT-4; OVCAR-4; OVCAR-8; RXF 393; SK-MEL-28; SK-MEL-2; SNB-19; UACC-257.
Holding throughout (assay): DTP human tumour cell line panel, 48 h

Each structure is given as a SMILES string.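 Values below derive from 48-hour exposures of cells grown in 96-well plates, with endpoints linearly interpolated between the two concentrations bracketing the appropriate inhibition level. GI50: concentration for 50% inhibition of growth.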 The source made the active and inactive calls. Rule as the data show it: active = GI50 up to about 1.1 µM and inactive = higher.

Results on seven molecules are retold here after ChEMBL document CHEMBL1201862, “PubChem BioAssay data set” (2004).

The term GI50 denotes the concentration giving 50% growth inhibition. For `CCOC(=O)NN(C(=O)OCC)C(=C(c1ccccc1)N1CCOCC1)N(NC(=O)OCC)C(=O)OCC`, the GI50 in the experiment on A498 was > 100 µM (inactive); with BT-549, > 100 µM (inactive); in the experiment on CCRF-CEM it was > 100 µM (inactive); with COLO 205, > 100 µM (inactive); with HCT-15, over 100 µM; with HOP-62 it was > 100 µM (inactive). Moreover, the GI50 with HOP-92, with HT-29, in the experiment with IGROV-1, with K562, in the experiment on KM12 and in the experiment with M14 was > 100 µM (inactive) in each case. Besides, the GI50 in the experiment on MOLT-4, with OVCAR-4, in the experiment with OVCAR-8, in the experiment on RXF 393, in the experiment on SK-MEL-28 and with SK-MEL-2 was > 100 µM (inactive) throughout. The GI50 in the experiment with SNB-19 and with UACC-257 was > 100 µM (inactive) in each case.

`Cc1c2cc[n+]([O-])cc2c(C)c2c1[nH]c1ccccc12`: the GI50 in the experiment on A498 was 7.33 µM (inactive); in the experiment on BT-549 it was 9.64 µM (inactive); with CCRF-CEM, 2.88 µM (inactive); with COLO 205, 2.15 µM (inactive); with HCT-15, 5.22 µM; in the experiment on HOP-62, 5.74 µM (inactive). In addition, the GI50 is 10.2 µM (inactive) in the experiment with HOP-92; 3.57 µM (inactive) in the experiment with HT-29; 6.89 µM (inactive) in the experiment with IGROV-1; 4.84 µM (inactive) in the experiment with K562; 9.75 µM (inactive) with KM12; 7.1 µM (inactive) in the experiment on M14. The GI50 in the experiment with MOLT-4 is 0.998 µM (active); in the experiment with OVCAR-4, 9.95 µM (inactive); in the experiment on OVCAR-8 it was 2.86 µM (inactive); in the experiment with RXF 393 it was 6.73 µM (inactive); in the experiment on SK-MEL-28, 37.8 µM (inactive); with SK-MEL-2, 12.1 µM (inactive). Also, the values for the GI50 with SNB-19 and in the experiment on UACC-257 were 7.13 µM (inactive) and 17.7 µM (inactive), respectively.

As to `COC(=O)C(CCC1C=CCC1)/N=C\c1ccccc1` (stereo not given), the GI50 in the experiment with A498 is 81.5 µM (inactive); in the experiment on BT-549, 78.5 µM (inactive); in the experiment with CCRF-CEM, 56 µM (inactive); in the experiment with COLO 205, 48.8 µM (inactive); in the experiment on HCT-15 it was 43.6 µM; with HOP-62 it was 68.5 µM (inactive). Moreover, the GI50 was 67 µM (inactive) with HOP-92; 50 µM (inactive) in the experiment with HT-29; > 100 µM (inactive) with IGROV-1; 47.2 µM (inactive) with K562; 45 µM (inactive) with KM12; 46.2 µM (inactive) in the experiment on M14. For the same molecule, the GI50 is 33.8 µM (inactive) in the experiment with MOLT-4; 54.7 µM (inactive) in the experiment on OVCAR-4; 68.2 µM (inactive) in the experiment with OVCAR-8; 58.5 µM (inactive) in the experiment on RXF 393; > 100 µM (inactive) with SK-MEL-28; 37.5 µM (inactive) in the experiment with SK-MEL-2. The GI50 is 79.1 µM (inactive) with SNB-19 and 38.2 µM (inactive) with UACC-257.

As to `O=C(c1cc2c(c3ccccc13)NC1(CCCCC1)N=C2C(F)(F)F)C(F)(F)F`, the GI50 with A498 is 7.83 µM (inactive); in the experiment on BT-549, 4.37 µM (inactive); with CCRF-CEM, 3.39 µM (inactive); in the experiment with COLO 205, 5.57 µM (inactive); in the experiment on HCT-15 it was 5.07 µM; with HOP-62 it was 40.5 µM (inactive). In addition, the GI50 is 3.69 µM (inactive) with HOP-92; 3.66 µM (inactive) with HT-29; 4.93 µM (inactive) in the experiment on IGROV-1; 4.3 µM (inactive) in the experiment on K562; 3.42 µM (inactive) with KM12; 6.17 µM (inactive) with M14. Besides, the GI50 with MOLT-4 is 3.29 µM (inactive); in the experiment with OVCAR-4 it was 3.73 µM (inactive); with OVCAR-8 it was 4.23 µM (inactive); in the experiment on RXF 393, 3.66 µM (inactive); in the experiment on SK-MEL-28, 9.1 µM (inactive); in the experiment with SK-MEL-2 it was 2.44 µM (inactive). Further, the values for the GI50 in the experiment with SNB-19 and with UACC-257 were 5.4 µM (inactive) and 3.17 µM (inactive), respectively.

Turning to `COc1cc(C2c3[nH]c4ccccc4c3[C@@H](Nc3ccc(C#N)cc3)[C@H]3COC(=O)N23)cc(OC)c1O` (stereo not given in full), the GI50 in the experiment with A498 is 0.0516 µM (active); in the experiment on BT-549 it was 0.265 µM (active); in the experiment on CCRF-CEM, 0.054 µM (active); in the experiment with COLO 205, 0.644 µM (active); in the experiment on HCT-15, 1.07 µM; in the experiment on HOP-62, 0.192 µM (active). Besides, the GI50 was 0.413 µM (active) in the experiment on HOP-92; 0.3 µM (active) in the experiment on HT-29; 0.501 µM (active) with IGROV-1; 0.181 µM (active) with K562; 0.243 µM (active) in the experiment on KM12; 0.344 µM (active) in the experiment with M14. Further, the GI50 is 0.0188 µM (active) in the experiment with MOLT-4; 1.84 µM (inactive) in the experiment on OVCAR-4; 0.227 µM (active) with OVCAR-8; 1.16 µM (inactive) with RXF 393; 0.395 µM (active) in the experiment with SK-MEL-28; 0.356 µM (active) in the experiment on SK-MEL-2. For the same molecule, the GI50 in the experiment with SNB-19 was 0.235 µM (active); in the experiment on UACC-257, 0.548 µM (active).

`O=C(/C=C/c1ccsc1)c1ccco1`: the GI50 in the experiment with A498 was 5.41 µM (inactive); in the experiment with BT-549 it was 18.5 µM (inactive); with CCRF-CEM, 5.86 µM (inactive); with COLO 205 it was 17.6 µM (inactive); in the experiment on HCT-15 it was 7.24 µM; in the experiment with HOP-62, 14.9 µM (inactive). Besides, the GI50 was 14.9 µM (inactive) with HOP-92; 9.95 µM (inactive) in the experiment on HT-29; 10.4 µM (inactive) in the experiment with IGROV-1; 4.71 µM (inactive) in the experiment with K562; 4.8 µM (inactive) in the experiment with KM12; 11.2 µM (inactive) in the experiment on M14. Moreover, the GI50 with MOLT-4 is 4.34 µM (inactive); in the experiment on OVCAR-4, 5.24 µM (inactive); with OVCAR-8 it was 11.7 µM (inactive); with RXF 393, 13.3 µM (inactive); with SK-MEL-28, 12.8 µM (inactive); with SK-MEL-2, 14.1 µM (inactive). Further, the GI50 is 15.5 µM (inactive) with SNB-19 and 17.3 µM (inactive) in the experiment on UACC-257.

On to `O=C1c2cccnc2-c2nccc3c2c1nc1ccc(Br)cc13`, for which the GI50 in the experiment with A498 was 0.0853 µM (active); in the experiment with BT-549, 0.0337 µM (active); with CCRF-CEM it was < 0.01 µM (active); in the experiment with COLO 205, 0.438 µM (active); with HCT-15 it was 0.045 µM; in the experiment on HOP-62, 0.031 µM (active). In addition, the GI50 in the experiment on HOP-92 is 0.102 µM (active); in the experiment on HT-29, 0.282 µM (active); with IGROV-1, 0.038 µM (active); in the experiment with K562, 0.0238 µM (active); with KM12, 0.0656 µM (active); in the experiment with M14 it was 0.0243 µM (active). Also, the GI50 was 0.184 µM (active) in the experiment with MOLT-4; 0.061 µM (active) in the experiment on OVCAR-4; 0.0662 µM (active) in the experiment with OVCAR-8; 0.0184 µM (active) in the experiment with RXF 393; 0.0252 µM (active) in the experiment with SK-MEL-28; 0.0726 µM (active) in the experiment with SK-MEL-2. For the same molecule, the GI50 was 0.136 µM (active) in the experiment with SNB-19 and 0.0536 µM (active) in the experiment with UACC-257.
